Test [1] deals with Tyrosine-protein kinase SYK (Homo sapiens, UniProt P43405). Kind of test: Affinity for Syk protein tyrosine kinase.
For test [2], the target named is Proto-oncogene tyrosine-protein kinase Src (Homo sapiens, UniProt P12931). Kind of test: Affinity for Src protein tyrosine kinase.
Test [3] concerns the target T1, Tyrosine-protein kinase ZAP-70 (Homo sapiens, UniProt P43403).
T1 sequence (P43403 whole entry): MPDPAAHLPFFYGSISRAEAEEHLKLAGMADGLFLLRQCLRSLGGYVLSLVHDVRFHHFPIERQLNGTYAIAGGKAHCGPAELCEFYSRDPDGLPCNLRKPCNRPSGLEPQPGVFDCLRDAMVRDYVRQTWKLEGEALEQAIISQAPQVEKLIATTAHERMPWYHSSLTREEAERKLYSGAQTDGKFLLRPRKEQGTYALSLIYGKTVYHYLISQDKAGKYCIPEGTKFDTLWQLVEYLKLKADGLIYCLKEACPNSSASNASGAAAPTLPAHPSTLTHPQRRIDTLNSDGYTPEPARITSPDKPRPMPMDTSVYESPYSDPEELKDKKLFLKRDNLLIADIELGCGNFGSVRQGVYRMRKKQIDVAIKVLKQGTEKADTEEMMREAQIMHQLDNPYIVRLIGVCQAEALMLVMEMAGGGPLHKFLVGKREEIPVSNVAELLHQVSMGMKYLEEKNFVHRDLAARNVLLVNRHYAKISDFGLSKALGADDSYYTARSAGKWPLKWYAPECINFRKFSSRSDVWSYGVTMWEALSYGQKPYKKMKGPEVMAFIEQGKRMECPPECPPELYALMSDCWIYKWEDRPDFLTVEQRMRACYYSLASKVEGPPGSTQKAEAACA
Kind of test: Affinity for Zeta-chain (TCR) associated protein kinase 70 kDa (ZAP70).

Chain of Proto-oncogene tyrosine-protein kinase Src (P12931 2-536 limits assumed): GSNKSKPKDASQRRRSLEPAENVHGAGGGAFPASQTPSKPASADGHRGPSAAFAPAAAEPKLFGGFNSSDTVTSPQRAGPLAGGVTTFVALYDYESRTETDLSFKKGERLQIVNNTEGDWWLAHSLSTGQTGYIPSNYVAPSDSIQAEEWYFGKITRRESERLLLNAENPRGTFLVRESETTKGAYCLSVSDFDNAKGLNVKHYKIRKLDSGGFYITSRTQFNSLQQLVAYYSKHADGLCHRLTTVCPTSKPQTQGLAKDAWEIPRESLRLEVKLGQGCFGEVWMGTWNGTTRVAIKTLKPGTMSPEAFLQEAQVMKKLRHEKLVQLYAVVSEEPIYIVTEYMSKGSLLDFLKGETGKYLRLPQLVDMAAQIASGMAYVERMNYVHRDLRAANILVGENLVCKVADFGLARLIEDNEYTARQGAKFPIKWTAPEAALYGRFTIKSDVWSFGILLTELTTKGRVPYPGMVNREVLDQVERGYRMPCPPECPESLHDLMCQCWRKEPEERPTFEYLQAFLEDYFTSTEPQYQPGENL

The term IC50 denotes the concentration needed to halve the response being measured. With `C[C@H](NC(=O)[C@@H](CC(=O)O)Cc1ccc(OP(=O)(O)O)cc1)c1nc(Cc2ccc(Cl)c(Cl)c2)no1`, the concentration for half-maximal inhibition (IC50) was greater than 500 µM in test [1] and 53 µM in test [2]. For `O=C(O)C[C@@H](Cc1ccc(OP(=O)(O)O)cc1)C(=O)N[C@@H](CO)c1nc(Cc2ccc(Cl)c(Cl)c2)no1` the same measures were greater than 500 µM and 54 µM. The compound `CC(=O)N[C@@H](Cc1ccc(OP(=O)(O)O)cc1)C(=O)N[C@@H](C)c1nc(Cc2ccc(C(F)(F)F)cc2)no1` registered an IC50 in test [2] of 72 µM. Still for that read-out and setting: for `CC(=O)N[C@@H](Cc1ccc(OP(=O)(O)O)cc1)C(=O)N[C@@H](C)c1nc(Cc2ccc(Cl)c(Cl)c2)no1` the value was 210 µM.

In the case of `C[C@H](NC(=O)Nc1cccc2cc(OP(=O)(O)O)ccc12)c1nc(Cc2ccc(Cl)c(Cl)c2)no1`, the IC50 in test [1] amounted to 310 µM; in test [2], 198 µM. As to `C[C@H](NC(=O)[C@H](Cc1ccc(OP(=O)(O)O)cc1)CS(=O)(=O)C(C)(C)C)c1nc(Cc2ccc(C(F)(F)F)cc2)no1`, the IC50 is greater than 500 µM in test [1] and 205 µM in test [2]. In the case of `C[C@H](NC(=O)c1cc2cc(OP(=O)(O)O)ccc2[nH]1)c1nc(Cc2ccc(Cl)c(Cl)c2)no1`, the IC50 in test [1] is 434 µM; in test [2] it was 81 µM. Consider `C[C@H](NC(=O)CCc1ccc(OP(=O)(O)O)cc1)c1nc(Cc2ccc(Cl)c(Cl)c2)no1`, for which the results for the concentration for half-maximal inhibition (IC50) in test [1], in test [3] and in test [2] were greater than 500 µM, 198 µM and 459 µM, respectively.

For `C[C@H](NC(=O)[C@@H](CC(=O)O)Cc1ccc(OP(=O)(O)O)cc1)c1nc(Cc2ccc(C(F)(F)F)cc2)no1`, the IC50 in test [1] is greater than 500 µM; in test [2], 102 µM.

Source of the values: ChEMBL document CHEMBL1131855, “Nonpeptidic SH2 inhibitors of the tyrosine kinase ZAP-70” (Bioorg Med Chem Lett, 1999).
